Values after ≈ are worked out from the molar mass of the structure shown. Square brackets hold non-standard residues; d marks the D form. Peptide text beside a SMILES is read from it. AEEA = NCCOCCOCC(=O)O
How the values were obtained:
[1] = Analytical RP-HPLC retention time; conditions: Phenomenex Jupiter 4 μ Proteo 90 Å, 250 × 4.60 mm, listed as basic physicochemical characteristic
Procedure: The synthesized compounds were then purified by reverse-phase high-performance liquid chromatography (RP-HPLC) on a Waters system (Phenomenex Jupiter 4 μ Proteo 90 Å column, 250 × 10 mm). A linear gradient from 10% to 80% of solvent B over 60 min (Solvent A: 0.1% TFA in water; Solvent B: 80% acetonitrile in Solvent A) was employed with a flow rate 5 ml/min. The homogeneity of the final peptide fractions was analyzed using a Shimadzu HPLC System (Shimadzu Europe GmbH, Duisburg, Germany) equipped with a Phenomenex Jupiter 4 μ Proteo 90 Å column, 250 × 4.60 mm. The mass spectra of the synthesized peptides were recorded using a Biflex III MALDI-TOF mass spectrometry (Bruker, Mannheim, Germany) with α-cyano-4-hydroxy-cinnamic acid (CCA) or 2,5-dihydroxybenzoic acid (DHB) used as the matrix.

[2] = tested on: HSV-1; conditions: concentration reducing viral replication by 50%; TIGKs cells pre-treated, infected and cultivated with compound; qPCR; mean of two independent experiments
Procedure: Data were expressed as means ± SD. Statistical significance was determined using unpaired t-test, one-way ANOVA, and/or two-way ANOVA for direct comparisons between single groups. A p-value <0.05 was considered statistically significant. We used GrapPad Prism 10 software for the analyses. […]

[3] = tested on: HSV-1; test: Virus inhibition (replication) assay in Vero E6 and TIGKs cells, qPCR, titration, gB Western blot; type: cell-based, herpes simplex virus type 1; conditions: 48 h p.i.
Procedure: (§1) HSV-1 stocks were generated by infecting Vero E6 cells. Cells were lysed at 48 h p.i. by two freeze-thaw cycles. The virus containing fluid was aliquoted and stored at −80°C. A control Vero E6 cell lysate from mock-infected cells was prepared in the same manner as the virus stock. Virus yield was assessed by virus titration on fully confluent Vero E6 cells in 96-well plates, according to the method of Reed & Muench ([32]). Plates were incubated at 37°C for 48 h and the occurrence of a cytopathic effect was scored using an inverted microscope, and TCID50 (50% tissue culture infection dose) was calculated.
Vero E6 or TIGKs cells were seeded in 12-well plates and cultured for 48 h. […] After 30 min of incubation at 37°C, cells were infected with HSV-1 at TCID50 400 /ml or treated with mock. After 2 h of infection at 37°C, unbound viral particles were removed by washing with PBS, and culture media supplemented with peptide conjugates were applied. Following 48 h of incubation, media were collected, and the quantity of HSV-1 DNA copies was assessed using titration and qPCR.
Viral DNA was isolated from the conditioned media or the apical washes of inserts (OTG model) using Viral DNA/RNA Isolation Kit (A&A Biotechnology). The virus yield assessed by quantitative real-time PCR (qPCR). The reaction was carried out in a CFX96 Touch Real-Time PCR Detection System (Bio-Rad), in a 10 μl reaction mixture consisting of TaqMan^TM Fast Advanced Master Mix, TaqMan^TM Microbe Detection assay against HSV-1 (Vi04230116_s1) and 1 μl of viral DNA. The temperature profile was 10 s at 95°C, followed by 40 cycles of 3 s at 95°C and 20 s at 60°C. DNA quantification standards were prepared. In summary, a fragment of viral DNA was amplified using the primers listed above and cloned into the pTZ57R/T plasmid using the InsTAclone PCR cloning kit. The plasmid was propagated in E. coli, purified with the GeneJet Plasmid Miniprep Kit, and digested with the EcoR1 restriction enzyme. The number of copies per mL was estimated after the concentration of linearized DNA was assessed spectrophotometrically.
Protein extracts were prepared using lysis buffer (0.25% Na-deoxycholate, 0.5% Nonidet P-40, 0.05% SDS, protease inhibitor mixture, 2.5 mM EDTA in PBS), and the protein concentration was assessed using Pierce BCA (Thermo Fisher) protein assay kit. Equal amounts of cell extracts were separated on 10% SDS-PAGE gel and electrotransferred onto polyvinylidene difluoride membranes for gB and β-actin in transfer buffer (25 mM Tris, 0.2 M glycine, and 20% ethanol) for 90 min at 100 V. Nonspecific binding sites were blocked for 90 min in 5% skimmed milk prepared in TBST buffer (20 mM Tris, pH 7.5, 0.5 M NaCl, 0.05% Tween 20). Membranes were further incubated overnight at 4°C with primary antibodies: mouse anti-HSV-1 + HSV-2 gB (1:5000; abcam) and mouse anti-β-actin (1:4,000; BD Biosciences). The following day, membranes were washed three times with TBST buffer and incubated with HRP-conjugated secondary antibodies for 60 min at 37°C: goat anti-mouse IgG (1:20,000; β-actin; BD Bioscience) or sheep anti-mouse IgG (1:50,000; gB; Sigma Aldrich). Next, blots were washed five times for 5 min in TBST buffer, developed using Luminata Cresecendo Substarte (Merck) and exposed to AGFA medical x-ray film. Densitometry analysis was performed using ImageJ 1.52q software.

[4] = Azure A metachromatic assay; type: binding; conditions: HS 0.2 mg/ml, Azure A 23 μg/ml, peptide 1–300 μg/ml, 15 min at RT
Procedure: The possible interaction of peptide conjugate with HS was investigated by incubation the mixtures containing a constant concentration of HS (0.2 mg/ml, Sigma Aldrich) and solutions of CPP1-PEG-LK6 at different concentrations (1–300 μg/ml). Next, the mixtures were shaken for 15 min at room temperature. […] Azure A, a cationic dye when binding to heparin and/or HS changes its adsorption spectrum ([35]).

[5] = tested on: HSV-1; test: Attachment (adsorption) assay in TIGKs cells; type: cell-based, herpes simplex virus type 1; conditions: 15 μg/ml present only during infection, 2 h at 4°C, 48 h
Procedure: as §1
TIGKs cells were seeded in 12-well plates and cultured for 48 h. Next, keratinocytes were infected with HSV-1 (TCID50 400 /ml) or treated with mock in the presence of DAL-PEG-LK6 or CPP1-PEG-LK6 (15 μg/ml) for 2 h at 4°C. […] Next, samples were collected, and viral yield was determined using titration and qPCR.
Viral DNA was isolated from the conditioned media or the apical washes of inserts (OTG model) using Viral DNA/RNA Isolation Kit (A&A Biotechnology). The virus yield assessed by quantitative real-time PCR (qPCR). […] DNA quantification standards were prepared. […] The number of copies per mL was estimated after the concentration of linearized DNA was assessed spectrophotometrically.

[6] = Confocal colocalization of CFS-labelled conjugate with HS on TIGKs cells; type: cell-based; conditions: CFS-labelled conjugate 15 μg/ml, 30 min at 4°C, average ± SEM
Procedure: To examine the colocalization of HS on the cell surface with tested peptide conjugate we treated TIGKs cells with CFS stained CPP1-PEG-LK6 (15 μg/ml) for 30 min at 4°C. Then cells were washed with cold PBS and fixed with 3.7% formaldehyde for 30 min. Afterwards, TIGKs cells were stained with primary antibodies (1:100; rat anti-HS, Abcam) for 2 h at room temperature. The cells were then incubated with secondary antibodies (1:1,000; goat anti-rat conjugated with Alexa Fluor 568, Cell Signaling) and with Alexa Fluor 633 Phalloidin. Next, the coverslips were placed on glass slide with ProLong Antifade Mounting Medium with DAPI and visualized using a confocal laser scanning microscope (LSM 880; Zeiss).

CC[C@H](C)[C@H](NC(=O)COCCOCCNC(=O)[C@@H](NC(=O)[C@H](CC(C)C)NC(=O)[C@H](Cc1ccc(O)cc1)NC(=O)[C@@H](NC(=O)[C@H](Cc1ccccc1)NC(=O)[C@@H]1CCCN1)C(C)C)[C@@H](C)CC)C(=O)N[C@@H](CCCCN)C(=O)N[C@@H](CCCCN)C(=O)N[C@H](C(=O)N[C@@H](CC(C)C)C(=O)N[C@@H](CO)C(=O)N[C@@H](CCCCN)C(=O)N[C@H](C(=O)N[C@@H](CCCCN)C(=O)N[C@@H](CCCCN)C(=O)N[C@@H](CC(C)C)C(=O)N[C@@H](CC(C)C)C(=O)N[C@@H](CCCCN)C(N)=O)[C@@H](C)CC)[C@@H](C)CC [CPP1-PEG-LK6] (H-PFVYLI[AEEA]IKKILSKIKKLLK-NH2)
Rt [1]: 25.247
IC50 [2]: 0.942 µg/mL (≈ 0.388 µM)
expression level of gB (Western blot) ([3]; 15 μg/ml before, during and after infection, normalized to β-actin, cell line not stated): significantly suppressed the expression level of gB
reduction in viral yield in the qPCR test ([3]; Figure 1C, Vero E6 (DAL-PEG-LK6 and CPP1-PEG-LK6 25 μg/ml; CPP2-PEG-LK6 10 μg/ml) and TIGKs cells (15 μg/ml)): 3 log
reduction of virus replication in titration assay ([3]; Figure 1D, both cell models (Vero E6, TIGKs), normalized to untreated control): over 99%
interaction with heparan sulfate (Azure A release, absorbance at 630 nm) [4]: releases Azure A from HS
decrease in viral yield, attachment assay, qPCR ([5]; Figure 2D): ~95%
decrease in viral titer, attachment assay, titration ([5]; Figure 2E): ~97%
colocalization with HS, Manders overlap coefficient [6]: 0.93 ± 0.01
colocalization with HS, Pearson's correlation [6]: 0.82 ± 0.02

— paper PMC11215077, “Antiviral activity of temporin-1CEb analogues against gingival infection with herpes simplex virus type 1” (Frontiers in Oral Health, 2024)
